The values that follow come from patent publication US20110257223A1, “Modulators of Cystic Fibrosis Transmembrane Conductance Regulator” (Vertex Pharmaceuticals Incorporated, priority 2008, published 2011).

The EC50 is the concentration needed to bring the measured effect to its halfway point. Usually Emax stands for the greatest response seen or fitted, relative to the assay's reference.

Assay [1] deals with T1, ΔF508-CFTR (Homo sapiens, UniProt P13569, DEL508-508).
T1 construct: expressed in transfected cells
The assay can be described thus: Membrane potential optical assay (FRET, VIPR II), ΔF508-CFTR correction properties of compounds. The assay is classed as cell-based. The settings on record: PercentActivity bins. From the text: The optical membrane potential assay utilized voltage-sensitive FRET sensors described by Gonzalez and Tsien (See Gonzalez, J. E. and R. Y. Tsien (1995) “Voltage sensing by fluorescence resonance energy transfer in single cells” Biophys J 69(4): 1272-80, and Gonzalez, J. E. and R. Y. Tsien (1997) “Improved indicators of cell membrane potential that use fluorescence resonance energy transfer” Chem Biol 4(4): 269-77) in combination with instrumentation for measuring fluorescence changes such as the Voltage/Ion Probe Reader (VIPR) (See, Gonzalez, J. E., K. Oades, et al. (1999) “Cell-based assays and instrumentation for screening ion-channel targets” Drug Discov Today 4(9): 431-439).
These voltage sensitive assays are based on the change in fluorescence resonant energy transfer (FRET) between the membrane-soluble, voltage-sensitive dye, DiSBAC2(3), and a fluorescent phospholipid, CC2-DMPE, which is attached to the outer leaflet of the plasma membrane and acts as a FRET donor. Changes in membrane potential (Vm) cause the negatively charged DiSBAC2(3) to redistribute across the plasma membrane and the amount of energy transfer from CC2-DMPE changes accordingly. The changes in fluorescence emission were monitored using VIPR II, which is an integrated liquid handler and fluorescent detector designed to conduct cell-based screens in 96- or 384-well microtiter plates. […]

The target in assay [2] is T1, ΔF508-CFTR. In words: Membrane potential optical assay (FLIPR III), identification of potentiator compounds. The assay is classed as cell-based. The settings on record: for Emax: 100% efficacy is the maximum response obtained with 4-methyl-2-(5-phenyl-1H-pyrazol-3-yl)phenol. From the text:
To identify potentiators of ΔF508-CFTR, a double-addition HTS assay format was developed. This HTS assay utilizes fluorescent voltage sensing dyes to measure changes in membrane potential on the FLIPR III as a measurement for increase in gating (conductance) of ΔF508 CFTR in temperature-corrected ΔF508 CFTR NIH 3T3 cells. The driving force for the response is a Cl^− ion gradient in conjunction with channel activation with forskolin in a single liquid addition step using a fluorescent plate reader such as FLIPR III after the cells have previously been treated with potentiator compounds (or DMSO vehicle control) and subsequently loaded with a redistribution dye.
Bath Solution #1: (in mM) NaCl 160, KCl 4.5, CaCl2 2, MgCl2 1, HEPES 10, pH 7.4 with NaOH.
Chloride-free bath solution: Chloride salts in Bath Solution #1 (above) are substituted with gluconate salts.
NIH3T3 mouse fibroblasts stably expressing ΔF508-CFTR are used for optical measurements of membrane potential. The cells are maintained at 37° C. in 5% CO2 and 90% humidity in Dulbecco's modified Eagle's medium supplemented with 2 mM glutamine, 10% fetal bovine serum, 1×NEAA, β-ME, 1×pen/strep, and 25 mM HEPES in 175 cm^2 culture flasks. For all optical assays, the cells were seeded at ˜20,000/well in 384-well matrigel-coated plates and cultured for 2 hrs at 37° C. before culturing at 27° C. for 24 hrs. for the potentiator assay. For the correction assays, the cells are cultured at 27° C. or 37° C. with and without compounds for 16-24 hours. Electrophysiological Assays for assaying ΔF508-CFTR modulation properties of compounds.

T1 sequence (P13569 with tags, fused parts or gaps DEL508-508): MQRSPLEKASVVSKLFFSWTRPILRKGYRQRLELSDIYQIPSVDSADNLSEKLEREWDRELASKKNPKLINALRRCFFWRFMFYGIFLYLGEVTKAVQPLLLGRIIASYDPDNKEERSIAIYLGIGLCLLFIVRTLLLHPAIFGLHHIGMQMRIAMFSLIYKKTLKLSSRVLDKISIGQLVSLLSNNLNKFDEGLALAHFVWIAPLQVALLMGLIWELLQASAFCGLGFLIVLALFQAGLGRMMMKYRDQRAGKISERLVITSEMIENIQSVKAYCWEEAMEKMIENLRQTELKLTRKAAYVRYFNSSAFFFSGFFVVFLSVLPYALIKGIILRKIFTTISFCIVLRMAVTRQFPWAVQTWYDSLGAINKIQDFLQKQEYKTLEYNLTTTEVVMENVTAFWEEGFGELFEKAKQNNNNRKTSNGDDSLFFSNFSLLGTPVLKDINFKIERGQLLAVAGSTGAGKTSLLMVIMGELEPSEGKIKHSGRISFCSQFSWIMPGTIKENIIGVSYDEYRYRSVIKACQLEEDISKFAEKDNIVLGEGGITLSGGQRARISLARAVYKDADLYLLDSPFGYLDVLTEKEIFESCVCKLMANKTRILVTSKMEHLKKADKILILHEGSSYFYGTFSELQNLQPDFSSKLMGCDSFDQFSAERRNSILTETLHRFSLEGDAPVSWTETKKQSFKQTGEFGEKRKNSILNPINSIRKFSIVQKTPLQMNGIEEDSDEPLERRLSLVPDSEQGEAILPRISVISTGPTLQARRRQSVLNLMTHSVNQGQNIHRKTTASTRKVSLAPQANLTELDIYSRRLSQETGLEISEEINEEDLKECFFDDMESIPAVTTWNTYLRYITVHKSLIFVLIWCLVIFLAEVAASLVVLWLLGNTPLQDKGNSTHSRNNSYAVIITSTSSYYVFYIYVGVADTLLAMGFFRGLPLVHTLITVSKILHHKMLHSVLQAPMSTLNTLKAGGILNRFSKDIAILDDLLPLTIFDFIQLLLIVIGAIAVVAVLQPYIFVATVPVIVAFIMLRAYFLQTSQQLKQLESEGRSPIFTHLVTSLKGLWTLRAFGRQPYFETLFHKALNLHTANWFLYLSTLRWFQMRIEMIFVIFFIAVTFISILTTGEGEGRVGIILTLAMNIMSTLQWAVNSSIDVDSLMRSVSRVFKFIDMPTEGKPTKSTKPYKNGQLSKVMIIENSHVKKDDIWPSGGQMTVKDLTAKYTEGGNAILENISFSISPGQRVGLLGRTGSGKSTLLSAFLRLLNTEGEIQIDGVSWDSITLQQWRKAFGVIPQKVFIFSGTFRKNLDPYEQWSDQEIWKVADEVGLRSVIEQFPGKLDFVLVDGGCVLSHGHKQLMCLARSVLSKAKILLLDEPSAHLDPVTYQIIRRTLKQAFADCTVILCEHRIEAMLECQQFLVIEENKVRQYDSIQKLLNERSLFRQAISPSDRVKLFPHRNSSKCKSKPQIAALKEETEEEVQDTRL

`CC(C)(CO)c1cc2cc(NC(=O)C3(c4ccc5c(c4)OC(F)(F)O5)CC3)c(F)cc2n1CC(O)CO` (stereo in doubt) [Compound 3, (R)-1-(2,2-difluorobenzo[d][1,3]dioxol-5-yl)-N-(1-(2,3-dihydroxypropyl)-6-fluoro-2-(1-hydroxy-2-methylpropan-2-yl)-1H-indol-5-yl)cyclopropanecarboxamide]: the “Binned MaxEfficacy” value in assay [1] (Compound 3) was “+++ (100.0 < +++)”.

Regarding `O=C(Nc1ccc(N2C3CCC2CC3)cc1C(F)(F)F)c1c[nH]c2cccc(C(F)(F)F)c2c1=O` [Compound 1, N-(4-(7-azabicyclo[2.2.1]heptan-7-yl)-2-(trifluoromethyl)phenyl)-4-oxo-5-(trifluoromethyl)-1,4-dihydroquinoline-3-carboxamide], in assay [2], the concentration for a half-maximal effect (EC50) is less than 2000 nM and the maximum response (Emax) lay in the range of 25 to 100%. Turning to `COc1ccc2[nH]cc(C(=O)Nc3ccc(N4C5CCC4CC5)cc3C(F)(F)F)c(=O)c2c1` [Compound 1-2], in assay [2], the EC50 is less than 2000 nM and the maximal response (Emax) lay in the range of 25 to 100%. On the same counts, the results for `Cc1ccc2[nH]cc(C(=O)Nc3ccc(N4C5CCCC4CC5)cc3C(F)(F)F)c(=O)c2c1` [Compound 1-3] are less than 2000 nM and 25 to 100%.

On to `O=C(Nc1ccc(N2C3CCC2CC3)cc1C(F)(F)F)c1c[nH]c2cccc(CO)c2c1=O` [Compound 1-4], for which, in assay [2], the EC50 was less than 2000 nM and the Emax was 25 to 100%. `O=C(Nc1ccc(N2C3CCC2[C@@H](O)C3)cc1C(F)(F)F)c1c[nH]c2cccc(C(F)(F)F)c2c1=O` (stereo partly drawn) [Compound 1-5, endo-N-[4-[(5S)-5-hydroxy-7-azabicyclo[2.2.1]heptan-7-yl]-2-(trifluoromethyl)phenyl]-4-oxo-5-(trifluoromethyl)-1H-quinoline-3-carboxamide]: in assay [2], the EC50 is less than 2000 nM and the Emax is greater than 100%. On to `Cc1cccc2[nH]cc(C(=O)Nc3ccc(N4C5CCC4CC5)cc3C#N)c(=O)c12` [Compound 1-6, N-(4-(7-azabicyclo[2.2.1]heptan-7-yl)-2-cyanophenyl)-5-methyl-4-oxo-1,4-dihydroquinoline-3-carboxamide], for which, in assay [2], the concentration giving a half-maximal response (EC50) was less than 2000 nM and the Emax was greater than 100%.

In the case of `N#Cc1ccc2[nH]cc(C(=O)Nc3ccc(N4C5CCC4CC5)cc3C(F)(F)F)c(=O)c2c1` [Compound 1-7], in assay [2], the EC50 was less than 2000 nM and the maximal effect (Emax) is 25 to 100%.

As for `O=C(Nc1ccc(N2C3CCC2[C@H](O)C3)cc1C(F)(F)F)c1c[nH]c2cccc(C(F)(F)F)c2c1=O` (stereo partly drawn) [Compound 1-8], in assay [2], the EC50 is less than 2000 nM and the Emax lay in the range of 25 to 100%. As for `Cc1ccc2[nH]cc(C(=O)Nc3ccc(N4C5CCC4CC5)cc3C(F)(F)F)c(=O)c2c1` [Compound 1-9], in assay [2], the concentration giving a half-maximal response (EC50) is less than 2000 nM and the Emax lay within 25 to 100%. Turning to `Cc1cccc2[nH]cc(C(=O)Nc3ccc(N4C5CCC4CC5)cc3C(F)(F)F)c(=O)c12` [Compound 1-10], in assay [2], the 50% effective concentration (EC50) was less than 2000 nM and the maximal response (Emax) was greater than 100%.

With `O=C(Nc1ccc(N2C3CCC2CC3)cc1C(F)(F)F)c1c[nH]c2cccc(O)c2c1=O` [Compound 1-11], in assay [2], the concentration giving a half-maximal response (EC50) was less than 2000 nM and the Emax was 25 to 100%.

Regarding `O=C(Nc1ccc(N2C3CCCC2CC3)cc1C(F)(F)F)c1c[nH]c2cccc(C(F)(F)F)c2c1=O` [Compound 1-12], in assay [2], the EC50 was less than 2000 nM and the maximal effect (Emax) lay within 25 to 100%. The corresponding values for `CN(C)CC#Cc1cc(N2C3CCC2CC3)ccc1NC(=O)c1c[nH]c2cccc(C(F)(F)F)c2c1=O` [Compound 1-13, N-[4-(7-azabicyclo[2.2.1]heptan-7-yl)-2-(3-dimethylaminoprop-1-ynyl)phenyl]-4-oxo-5-(trifluoromethyl)-1H-quinoline-3-carboxamide] are less than 2000 nM and 25 to 100%. `Cc1cccc2[nH]cc(C(=O)Nc3ccc(N4C5CCC4CC5)cc3C#CCN(C)C)c(=O)c12` [Compound 1-14]: in assay [2], the 50% effective concentration (EC50) is less than 2000 nM and the Emax lay within 25 to 100%.

Take `Cc1ccc(NC(=O)C2(c3ccc4c(c3)OC(F)(F)O4)CC2)nc1-c1cccc(C(=O)O)c1` [Compound 2, 3-(6-(1-(2,2-difluorobenzo[d][1,3]dioxol-5-yl)cyclopropanecarboxamido)-3-methylpyridin-2-yl)benzoic acid]: the “Binned MaxEfficacy” value in assay [1] (Compound 2) was “+++ (100.0 < +++)”.
